Assay: Compatibility test: related substances by HPLC after storage of mixed powders
Format: physicochemical
Excerpt: 4-((1-methylpyrrol-2-yl)-carbonyl)-N-(4-(4-morpholin-1-yl-carbonylpiperidin-1-yl)-phenyl)-1-piperazinecarboxamide (compound 1) monohydrate and organic acids were respectively weighed in an amount of 0.5 g. Compound 1 monohydrate was mixed with each organic acid in a mortar to produce individual mixed powders. Subsequently, compound 1 monohydrate alone was weighed in an amount of 0.5 g to produce a compound 1 monohydrate powder according to the same method as in the production of the organic acid mixed powders.
Each organic acid mixed powder and each compound 1 monohydrate powder were weighed in amounts of 0.04 g and 0.02 g, respectively, in sealed and open glass bottles. These bottles were allowed to stand at 60° C. and a relative humidity of 60% for two weeks, and then the production of a compound 1 monohydrate related substance was examined by HPLC to evaluate stability. In the evaluation, a high-speed liquid chromatograph (Shimadzu Corporation) was used.
Detector: Ultraviolet spectrophotometer (measurement wavelength: 260 nm)
Column: Phenylated silica gel for liquid chromatography (3.5 μm) (XBridge Phenyl, Japan Waters, Inc.) was placed in a stainless pipe with an inner diameter of 4.6 mm and a length of 10 cm.
Column temperature: Constant temperature of around 40° C.
Mobile phase A: Phosphate buffer solution (pH 7)
Mobile phase B: Acetonitrile
Transfer of mobile phase: The concentration gradient is regulated by changing the mixing ratio of mobile phases A and B as shown in Table 1.

Cn1cccc1C(=O)N1CCN(C(=O)Nc2ccc(N3CCC(C(=O)N4CCOCC4)CC3)cc2)CC1.O [Compound 1 monohydrate, 4-((1-methylpyrrol-2-yl)-carbonyl)-N-(4-(4-morpholin-1-yl-carbonylpiperidin-1-yl)-phenyl)-1-piperazinecarboxamide]
Initial value Related Substances (initial value, before storage): 0.46 mass %
Open Related Substances (open glass bottle, 60° C., relative humidity 60%, two weeks): 0.47 mass %
Sealed Related Substances (sealed glass bottle, 60° C., relative humidity 60%, two weeks): 0.44 mass %
